Experimental data as given in patent US20160045505A1, “COMPOUNDS AND COMPOSITIONS FOR THE TREATMENT OF PARASITIC DISEASES” (NOVARTIS AG, priority 2013, published 2016).
pEC50: −log10 of the molar value. Where two headings read alike, the source gives them in different places.

How the values were obtained:
[1] = tested on: Trypanosoma brucei Lister 427 strain, bloodstream form; test: Assay for proliferation of kinetoplastid parasite Trypanosoma brucei (Cell Titer Glo, 48 hours); type: cell-based; conditions: Trypanosoma brucei, T. brucei Lister 427 bloodstream form, read-out: T. brucei EC50
Procedure, shortened: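 Bloodstream-form T. brucei Lister 427 in HMI-9 medium was exposed to compound (DMSO vehicle) for 48 hours at 37° C, 5% CO2. Parasite growth was read as ATP by CellTiter-Glo luminescence, with EC50 calculated from percent inhibition.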

[2] = tested on: Trypanosoma cruzi amastigotes (Tulahuen strain expressing Lac-Z) cultured in 3T3 fibroblast cells; test: microbe, parasite or virus in culture; type: cell-based; conditions: Trypanosoma cruzi, TULAHUEN, Fibroblast, T. cruzi amastigotes in 3T3 fibroblast cells, read-out: T cruzi EC50
[3] = tested on: Leishmania donovani axenic amastigote parasites; test: Leishmania donovani axenic amastigote proliferation assay (Cell TiterGlo luminescence, 2 day incubation); type: cell-based; conditions: Leishmania donovani, read-out: L. donovani amastigotes EC50
[4] = tested on: L. donovani HU3 strain in mouse peritoneal macrophages; test: Assay for proliferation of Leishmania parasites in infected mouse peritoneal macrophages (SybrGreen staining, high-content imaging, 5 days); type: cell-based, Leishmania donovani; conditions: Leishmania donovani, Peritoneal macrophage, L. donovani in mouse peritoneal macrophages, read-out: L. donovani Macrophage EC50
[5] = axenic amastigotes, inhibition of proliferation

Cc1nc(C)c(C(=O)Nc2ccc(F)c(-c3cn4cc(-c5ccc(CCN6CCOCC6)cc5)cnc4n3)c2)o1 [Compound 348]
pEC50 ([1]; inhibition of proliferation): 6.78
pEC50 ([2]; inhibition of proliferation): 7.39
pEC50 [3, 5]: 6.47
pEC50 ([4]; inhibition of proliferation): 5.99

Cc1nc(C)c(C(=O)Nc2ccc(F)c(-c3cn4cc(-c5ccc(CCO)cc5)cnc4n3)c2)o1 [Compound 349]
pEC50 ([1]; inhibition of proliferation): 7.16
pEC50 ([2]; inhibition of proliferation): 6.74
pEC50 [3, 5]: 7.13
pEC50 ([4]; inhibition of proliferation): 6.17

O=C(Nc1ccc(F)c(-c2cn3cc(C4=CCCC4)cnc3n2)c1)N1CCCC1 [Compound 354]
pEC50 ([1]; inhibition of proliferation): 8.40
pEC50 ([2]; inhibition of proliferation): 8.10
pEC50 [3, 5]: 7.59
pEC50 ([4]; inhibition of proliferation): 6.99

Cn1cnc(-c2cnc3nc(-c4cc(NC(=O)N5CCCC5)ccc4F)cn3c2)c1 [Compound 355]
pEC50 ([1]; inhibition of proliferation): 7.07
pEC50 ([2]; inhibition of proliferation): 5.95
pEC50 [3, 5]: 7.01
pEC50 ([4]; inhibition of proliferation): 6.28

Cc1ccccc1-c1cnc2nc(-c3cc(NC(=O)N4CCCC4)ccc3F)cn2c1 [Compound 356]
pEC50 ([1]; inhibition of proliferation): 7.74
pEC50 ([2]; inhibition of proliferation): 7.80
pEC50 [3, 5]: 7.06
pEC50 ([4]; inhibition of proliferation): 6.48

Cc1nc(C)c(C(=O)Nc2ccc(F)c(-c3cn4cc(-c5ccc(OCCN6CCOCC6)cc5)cnc4n3)c2)o1 [Compound 359]
pEC50 ([1]; inhibition of proliferation): 5.82
pEC50 ([2]; inhibition of proliferation): 6.39
pEC50 [3, 5]: 6.35
pEC50 ([4]; inhibition of proliferation): 5.31

Cc1nc(C)c(C(=O)Nc2ccc(F)c(-c3cn4cc(-c5ccc(CN(C)C)cc5)cnc4n3)c2)o1 [Compound 360]
pEC50 ([1]; inhibition of proliferation): 6.94
pEC50 ([2]; inhibition of proliferation): 6.60
pEC50 [3, 5]: 5.47
pEC50 ([4]; inhibition of proliferation): 6.35

Cc1nc(C)c(C(=O)Nc2ccc(F)c(-c3cn4cc(-c5ccc(S(C)(=O)=O)cc5F)cnc4n3)c2)o1 [Compound 362]
pEC50 ([1]; inhibition of proliferation): 6.46
pEC50 ([2]; inhibition of proliferation): < 4.70
pEC50 [3, 5]: 6.39
pEC50 ([4]; inhibition of proliferation): < 4.46

Cc1nc(C)c(C(=O)Nc2ccc(F)c(-c3cn4cc(-c5ccn(C)n5)cnc4n3)c2)o1 [Compound 363]
pEC50 ([1]; inhibition of proliferation): 7.24
pEC50 ([2]; inhibition of proliferation): 7.35
pEC50 [3, 5]: 7.11
pEC50 ([4]; inhibition of proliferation): 6.87

Cc1nc(C)c(C(=O)Nc2ccc(F)c(-c3cn4cc(-c5cccn5C(=O)OC(C)(C)C)cnc4n3)c2)o1 [Compound 364]
pEC50 ([1]; inhibition of proliferation): 6.75
pEC50 ([2]; inhibition of proliferation): 6.66
pEC50 [3, 5]: 6.55
pEC50 ([4]; inhibition of proliferation): 6.81

Cc1nc(C)c(C(=O)Nc2ccc(F)c(-c3cn4cc(-c5c(C)noc5C)cnc4n3)c2)o1 [Compound 366]
pEC50 ([1]; inhibition of proliferation): 6.47
pEC50 ([2]; inhibition of proliferation): 6.35
pEC50 [3, 5]: 6.07
pEC50 ([4]; inhibition of proliferation): 6.47

Cc1nc(C)c(C(=O)Nc2ccc(F)c(-c3cn4cc(-c5cccc(N6CCN(C(=O)OC(C)(C)C)CC6)n5)cnc4n3)c2)o1 [Compound 368]
pEC50 ([1]; inhibition of proliferation): 6.30
pEC50 ([2]; inhibition of proliferation): 6.87
pEC50 [3, 5]: 6.33
pEC50 ([4]; inhibition of proliferation): 6.04

Cc1nc(C)c(C(=O)Nc2ccc(F)c(-c3cn4cc(-c5ccn[nH]5)cnc4n3)c2)o1 [Compound 369]
pEC50 ([1]; inhibition of proliferation): 6.81
pEC50 ([2]; inhibition of proliferation): 6.01
pEC50 [3, 5]: 6.55
pEC50 ([4]; inhibition of proliferation): 6.53

Cc1nc(C)c(C(=O)Nc2ccc(F)c(-c3cn4cc(-c5cncn5C)cnc4n3)c2)o1 [Compound 370]
pEC50 ([1]; inhibition of proliferation): 6.41
pEC50 ([2]; inhibition of proliferation): 5.13
pEC50 [3, 5]: 5.26
pEC50 ([4]; inhibition of proliferation): 5.44

Cc1nc(C)c(C(=O)Nc2ccc(F)c(-c3cn4cc(C5=CCCO5)cnc4n3)c2)o1 [Compound 371]
pEC50 ([1]; inhibition of proliferation): 5.83
pEC50 ([2]; inhibition of proliferation): 6.33
pEC50 [3, 5]: 5.78
pEC50 ([4]; inhibition of proliferation): 5.64

Cc1nc(C)c(C(=O)Nc2ccc(F)c(-c3cn4cc(-c5ccccc5N)cnc4n3)c2)o1 [Compound 372]
pEC50 [1]: 7.10
pEC50 [2]: 7.02
pEC50 ([3]; L. donovani axenic amastigotes): 6.66
pEC50 [4]: 6.62

Cc1nc(C)c(C(=O)Nc2ccc(F)c(-c3cn4cc(C5=CCCCO5)cnc4n3)c2)o1 [Compound 373]
pEC50 [1]: 7.36
pEC50 [2]: 7.08
pEC50 ([3]; L. donovani axenic amastigotes): 6.94
pEC50 [4]: 6.87

Cc1nc(C)c(C(=O)Nc2ccc(F)c(-c3cn4cc(-c5cscn5)cnc4n3)c2)o1 [Compound 374]
pEC50 [1]: 6.37
pEC50 [2]: 7.39
pEC50 ([3]; L. donovani axenic amastigotes): 7.40
pEC50 [4]: 7.37

Cc1nc(C)c(C(=O)Nc2ccc(F)c(-c3cn4cc(C5=CCCN(C)C5)cnc4n3)c2)o1 [Compound 375]
pEC50 [1]: 6.87
pEC50 [2]: 6.52
pEC50 ([3]; L. donovani axenic amastigotes): 5.37
pEC50 [4]: 6.30

Cc1cccc(-c2cnc3nc(-c4cc(NC(=O)c5oc(C)nc5C)ccc4F)cn3c2)n1 [Compound 376]
pEC50 [1]: 6.80
pEC50 [2]: 7.02
pEC50 ([3]; L. donovani axenic amastigotes): 7.07
pEC50 [4]: 6.59

Cc1nc(C)c(C(=O)Nc2ccc(F)c(-c3cn4cc(-c5ccncc5)cnc4n3)c2)o1 [Compound 377]
pEC50 [1]: 7.38
pEC50 [2]: 6.86
pEC50 ([3]; L. donovani axenic amastigotes): 7.12
pEC50 [4]: 6.84

Cc1nc(C)c(C(=O)Nc2ccc(F)c(-c3cn4cc(C5=CCN(Cc6ccccc6)CC5)cnc4n3)c2)o1 [Compound 378]
pEC50 [1]: 7.42
pEC50 [2]: 7.33
pEC50 ([3]; L. donovani axenic amastigotes): 6.27
pEC50 [4]: 6.87

Cc1nc(C)c(C(=O)Nc2ccc(F)c(-c3cn4cc(C5=CC(C)(C)OC(C)(C)C5)cnc4n3)c2)o1 [Compound 379]
pEC50 [1]: 5.84
pEC50 [2]: 6.17
pEC50 ([3]; L. donovani axenic amastigotes): 6.28
pEC50 [4]: 5.77

Cc1nc(C)c(C(=O)Nc2ccc(F)c(-c3cn4cc(-c5ccc(NC(C)C)cc5)cnc4n3)c2)o1 [Compound 380]
pEC50 [1]: 4.51
pEC50 [2]: 4.85
pEC50 ([3]; L. donovani axenic amastigotes): 4.61
pEC50 [4]: 4.47

CCN(C)C(=O)Nc1ccc(F)c(-c2cn3cc(-c4ccccn4)cnc3n2)c1 [Compound 381]
pEC50 [1]: 6.32
pEC50 [2]: 6.35
pEC50 ([3]; L. donovani axenic amastigotes): 6.41
pEC50 [4]: 5.84

Cc1nc(C)c(C(=O)Nc2ccc(F)c(-c3cn4cc(-c5ccc(N6CCN(C(C)C)CC6)cc5)cnc4n3)c2)o1 [Compound 382]
pEC50 [1]: 5.58
pEC50 [2]: 5.86
pEC50 ([3]; L. donovani axenic amastigotes): 5.41
pEC50 [4]: 4.97

Cc1nc(C)c(C(=O)Nc2ccc(F)c(-c3cn4cc(-c5ccc(N6CCOCC6)cc5)cnc4n3)c2)o1 [Compound 383]
pEC50 [1]: 6.48
pEC50 [2]: 6.86
pEC50 ([3]; L. donovani axenic amastigotes): 6.84
pEC50 [4]: 6.28

Cc1nc(C)c(C(=O)Nc2ccc(F)c(-c3cn4cc(-c5cnn(C6CCN(C(=O)OC(C)(C)C)CC6)c5)cnc4n3)c2)o1 [Compound 384]
pEC50 [1]: 6.84
pEC50 [2]: 6.94
pEC50 ([3]; L. donovani axenic amastigotes): 7.02
pEC50 [4]: 6.21

Cc1nc(C)c(C(=O)Nc2ccc(F)c(-c3cn4cc(-c5cnn(C6CCOCC6)c5)cnc4n3)c2)o1 [Compound 385]
pEC50 [1]: 6.43
pEC50 [2]: 5.93
pEC50 ([3]; L. donovani axenic amastigotes): 6.57
pEC50 [4]: < 4.44

Cc1nc(C)c(C(=O)Nc2ccc(F)c(-c3cn4cc(-c5cn[nH]c5)cnc4n3)c2)o1 [Compound 386]
pEC50 [1]: 5.81
pEC50 [2]: < 4.70
pEC50 ([3]; L. donovani axenic amastigotes): 5.83
pEC50 [4]: < 4.30

Cc1nc(C)c(C(=O)Nc2ccc(F)c(-c3cn4cc(-c5cnn(CCN6CCOCC6)c5)cnc4n3)c2)o1 [Compound 388]
pEC50 [1]: 6.38
pEC50 [2]: 5.45
pEC50 ([3]; L. donovani axenic amastigotes): 6.00
pEC50 [4]: 5.53

Cc1nc(C)c(C(=O)Nc2ccc(F)c(-c3cn4cc(-c5cnn(C)c5)cnc4n3)c2)o1 [Compound 389]
pEC50 [1]: 6.80
pEC50 [2]: 6.60
pEC50 ([3]; L. donovani axenic amastigotes): 7.01
pEC50 [4]: 6.48

Cc1nc(C)c(C(=O)Nc2ccc(F)c(-c3cn4cc(-c5ccnn5C(C)C)cnc4n3)c2)o1 [Compound 390]
pEC50 [1]: 7.27
pEC50 [2]: 7.12
pEC50 ([3]; L. donovani axenic amastigotes): 7.28
pEC50 [4]: 6.76

Cc1nc(C)c(C(=O)Nc2ccc(F)c(-c3cn4cc(-c5ccccc5F)cnc4n3)c2)o1 [Compound 391]
pEC50 [1]: 7.28
pEC50 [2]: 7.80
pEC50 ([3]; L. donovani axenic amastigotes): 7.25
pEC50 [4]: 6.89
